Measured values published in the supplement of paper PMC10307832.

Tests used:
Test in all cases: relative viability (nuclei count vs DMSO), 5 days (fraction); higher = more cells survive
Vemurafenib + Olaparib = compound: CCCS(=O)(=O)Nc1ccc(F)c(C(=O)c2c[nH]c3ncc(-c4ccc(Cl)cc4)cc23)c1F [Vemurafenib] + O=C(c1cc(Cc2n[nH]c(=O)c3ccccc23)ccc1F)N1CCN(C(=O)C2CC2)CC1 [Olaparib] (partner 8 µM)
Summary of the method: (§1)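 Lung cancer cell lines were pin-tool dosed in 1536-well plates on the day after seeding, with either a lone drug or a fixed anchor-drug dose plus five library-drug doses (not always all listed) in √10 steps. Nuclei were counted on 4× images after 5 days. Relative viability is the ratio of treated-well to vehicle-well nuclei counts, with each value a median of duplicate plates.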

Alpelisib + Pemetrexed = compound: Cc1nc(NC(=O)N2CCC[C@H]2C(N)=O)sc1-c1ccnc(C(C)(C)C(F)(F)F)c1 [Alpelisib] + Nc1nc2[nH]cc(CCc3ccc(C(=O)N[C@@H](CCC(=O)O)C(=O)O)cc3)c2c(=O)[nH]1 [Pemetrexed] (partner 0.2 µM)
Summary of the method: as §1

OSI-027 + Lapatinib = compound: COc1cccc2cc(-c3nc([C@H]4CC[C@H](C(=O)O)CC4)n4ncnc(N)c34)[nH]c12 [OSI-027] + CS(=O)(=O)CCNCc1ccc(-c2ccc3ncnc(Nc4ccc(OCc5cccc(F)c5)c(Cl)c4)c3c2)o1 [Lapatinib] (partner 2 µM)
Summary of the method: as §1

OSI-027 + Bortezomib = compound: COc1cccc2cc(-c3nc([C@H]4CC[C@H](C(=O)O)CC4)n4ncnc(N)c34)[nH]c12 [OSI-027] + CC(C)C[C@H](NC(=O)[C@H](Cc1ccccc1)NC(=O)c1cnccn1)B(O)O [Bortezomib] (partner 0.002 µM)
Summary of the method: as §1

**Q.** How did the relative viability (Vemurafenib + Olaparib; first compound 0.03162 µM) turn out when UMC-11 was run?
**A.** Its relative viability is 0.391.

**Q.** And the relative viability (Vemurafenib + Olaparib; first compound 0.1 µM)?
**A.** Its relative viability is 0.4.

**Q.** And the relative viability (Vemurafenib + Olaparib; first compound 0.3162 µM)?
**A.** Its relative viability is 0.392.

**Q.** What about the relative viability (Vemurafenib + Olaparib; first compound 1 µM) of the same cell line?
**A.** The relative viability was 0.375.

**Q.** And the relative viability (Alpelisib + Pemetrexed; first compound 0.04 µM)?
**A.** The relative viability was 0.732.

**Q.** What about the relative viability (Alpelisib + Pemetrexed; first compound 0.1265 µM) of the same cell line?
**A.** The relative viability was 0.709.

**Q.** And the relative viability (Alpelisib + Pemetrexed; first compound 0.4 µM)?
**A.** The relative viability was 0.844.

**Q.** And the relative viability (Alpelisib + Pemetrexed; first compound 1.265 µM)?
**A.** The relative viability was 0.699.

**Q.** What about the relative viability (Alpelisib + Pemetrexed; first compound 4 µM) of the same cell line?
**A.** The relative viability was 0.692.

**Q.** What about the relative viability (OSI-027 + Lapatinib; first compound 0.01 µM) of the same cell line?
**A.** The relative viability was 0.934.

**Q.** What about the relative viability (OSI-027 + Lapatinib; first compound 0.03162 µM) of the same cell line?
**A.** Its relative viability is 0.939.

**Q.** And the relative viability (OSI-027 + Lapatinib; first compound 0.1 µM)?
**A.** The relative viability was 0.805.

**Q.** What about the relative viability (OSI-027 + Lapatinib; first compound 0.3162 µM) of the same cell line?
**A.** The relative viability was 0.693.

**Q.** What about the relative viability (OSI-027 + Lapatinib; first compound 1 µM) of the same cell line?
**A.** The relative viability was 0.506.

**Q.** And the relative viability (OSI-027 + Bortezomib; first compound 0.01 µM)?
**A.** The relative viability was 0.565.

**Q.** And the relative viability (OSI-027 + Bortezomib; first compound 0.03162 µM)?
**A.** The relative viability was 0.646.

**Q.** And the relative viability (OSI-027 + Bortezomib; first compound 0.1 µM)?
**A.** The relative viability was 0.696.

**Q.** What about the relative viability (OSI-027 + Bortezomib; first compound 0.3162 µM) of the same cell line?
**A.** The relative viability was 0.668.

**Q.** And the relative viability (OSI-027 + Bortezomib; first compound 1 µM)?
**A.** Its relative viability is 0.503.
